This note sets out measurements from patent publication US20250136578A1 (Kolm Therapeutics Inc., priority 2023, published 2025).

The subject of one assay is VCaP cells. The assay is described as follows: VCaP growth inhibition assay (CTG). It counts as cell-based. The conditions noted are these: Homo sapiens, 216 h, 30 pM R1881, 9 days. The method in brief:
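Growth was measured by CTG luminescence after a 9-day exposure of VCaP cells to compound (final 10 fM–100 nM, fivefold steps) in the presence of 30 pM final R1881, in phenol red-free DMEM/5% CSS. IC50 values were derived by nonlinear 4-parameter regression of RLU against concentration.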

Another assay concerns the target AR / CBP ternary complex (Homo sapiens, UniProt P10275+Q92793). The assay is described as follows: Ternary complex formation assay (sandwich ELISA, AR capture, CBP antibody detection) in VCaP cell lysates. The class given is cell-based. As to conditions: treated 1.5 hours, rabbit CBP or p300 antibody detection, average, read-out: Average Ternary Complex. The essentials:
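Sandwich ELISA: plates were coated with anti-AR antibody (AR441) and given lysates of VCaP cells treated 1.5 h with bifunctional compound in charcoal-stripped serum. Co-captured CBP or p300 was probed with rabbit mAbs and HRP secondary. Chemifluorescent signal (ex 570/em 585) was read at 0, 5 and 15 min.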
For orientation: In an ELISA, binding on a coated surface is turned into a signal by an enzyme label.

Chain of AR / CBP ternary complex (P10275 whole entry): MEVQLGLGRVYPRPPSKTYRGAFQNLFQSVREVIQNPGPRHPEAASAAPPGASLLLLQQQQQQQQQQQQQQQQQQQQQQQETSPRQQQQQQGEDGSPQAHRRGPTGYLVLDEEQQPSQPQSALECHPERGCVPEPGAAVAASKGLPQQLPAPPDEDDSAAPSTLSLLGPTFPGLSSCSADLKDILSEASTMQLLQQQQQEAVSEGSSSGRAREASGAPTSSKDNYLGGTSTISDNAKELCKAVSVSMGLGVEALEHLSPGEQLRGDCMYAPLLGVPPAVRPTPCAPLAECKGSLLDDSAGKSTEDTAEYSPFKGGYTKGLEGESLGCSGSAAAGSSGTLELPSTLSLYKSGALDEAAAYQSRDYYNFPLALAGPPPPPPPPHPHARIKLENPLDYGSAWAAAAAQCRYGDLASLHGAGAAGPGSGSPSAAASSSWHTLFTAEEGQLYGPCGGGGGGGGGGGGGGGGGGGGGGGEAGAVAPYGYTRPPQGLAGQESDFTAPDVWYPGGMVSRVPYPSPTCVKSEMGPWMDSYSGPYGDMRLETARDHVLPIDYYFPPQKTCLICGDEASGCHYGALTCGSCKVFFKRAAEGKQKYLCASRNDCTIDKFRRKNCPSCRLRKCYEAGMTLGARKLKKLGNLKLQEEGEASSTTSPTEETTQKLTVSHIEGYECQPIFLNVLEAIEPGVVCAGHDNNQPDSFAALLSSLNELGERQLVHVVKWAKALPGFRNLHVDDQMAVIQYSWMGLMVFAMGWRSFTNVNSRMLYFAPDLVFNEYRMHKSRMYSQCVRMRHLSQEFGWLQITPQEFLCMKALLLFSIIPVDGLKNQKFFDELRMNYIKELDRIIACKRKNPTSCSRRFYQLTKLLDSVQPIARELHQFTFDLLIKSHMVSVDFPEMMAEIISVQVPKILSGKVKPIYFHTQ
Chain of AR / CBP ternary complex (Q92793 2-2442): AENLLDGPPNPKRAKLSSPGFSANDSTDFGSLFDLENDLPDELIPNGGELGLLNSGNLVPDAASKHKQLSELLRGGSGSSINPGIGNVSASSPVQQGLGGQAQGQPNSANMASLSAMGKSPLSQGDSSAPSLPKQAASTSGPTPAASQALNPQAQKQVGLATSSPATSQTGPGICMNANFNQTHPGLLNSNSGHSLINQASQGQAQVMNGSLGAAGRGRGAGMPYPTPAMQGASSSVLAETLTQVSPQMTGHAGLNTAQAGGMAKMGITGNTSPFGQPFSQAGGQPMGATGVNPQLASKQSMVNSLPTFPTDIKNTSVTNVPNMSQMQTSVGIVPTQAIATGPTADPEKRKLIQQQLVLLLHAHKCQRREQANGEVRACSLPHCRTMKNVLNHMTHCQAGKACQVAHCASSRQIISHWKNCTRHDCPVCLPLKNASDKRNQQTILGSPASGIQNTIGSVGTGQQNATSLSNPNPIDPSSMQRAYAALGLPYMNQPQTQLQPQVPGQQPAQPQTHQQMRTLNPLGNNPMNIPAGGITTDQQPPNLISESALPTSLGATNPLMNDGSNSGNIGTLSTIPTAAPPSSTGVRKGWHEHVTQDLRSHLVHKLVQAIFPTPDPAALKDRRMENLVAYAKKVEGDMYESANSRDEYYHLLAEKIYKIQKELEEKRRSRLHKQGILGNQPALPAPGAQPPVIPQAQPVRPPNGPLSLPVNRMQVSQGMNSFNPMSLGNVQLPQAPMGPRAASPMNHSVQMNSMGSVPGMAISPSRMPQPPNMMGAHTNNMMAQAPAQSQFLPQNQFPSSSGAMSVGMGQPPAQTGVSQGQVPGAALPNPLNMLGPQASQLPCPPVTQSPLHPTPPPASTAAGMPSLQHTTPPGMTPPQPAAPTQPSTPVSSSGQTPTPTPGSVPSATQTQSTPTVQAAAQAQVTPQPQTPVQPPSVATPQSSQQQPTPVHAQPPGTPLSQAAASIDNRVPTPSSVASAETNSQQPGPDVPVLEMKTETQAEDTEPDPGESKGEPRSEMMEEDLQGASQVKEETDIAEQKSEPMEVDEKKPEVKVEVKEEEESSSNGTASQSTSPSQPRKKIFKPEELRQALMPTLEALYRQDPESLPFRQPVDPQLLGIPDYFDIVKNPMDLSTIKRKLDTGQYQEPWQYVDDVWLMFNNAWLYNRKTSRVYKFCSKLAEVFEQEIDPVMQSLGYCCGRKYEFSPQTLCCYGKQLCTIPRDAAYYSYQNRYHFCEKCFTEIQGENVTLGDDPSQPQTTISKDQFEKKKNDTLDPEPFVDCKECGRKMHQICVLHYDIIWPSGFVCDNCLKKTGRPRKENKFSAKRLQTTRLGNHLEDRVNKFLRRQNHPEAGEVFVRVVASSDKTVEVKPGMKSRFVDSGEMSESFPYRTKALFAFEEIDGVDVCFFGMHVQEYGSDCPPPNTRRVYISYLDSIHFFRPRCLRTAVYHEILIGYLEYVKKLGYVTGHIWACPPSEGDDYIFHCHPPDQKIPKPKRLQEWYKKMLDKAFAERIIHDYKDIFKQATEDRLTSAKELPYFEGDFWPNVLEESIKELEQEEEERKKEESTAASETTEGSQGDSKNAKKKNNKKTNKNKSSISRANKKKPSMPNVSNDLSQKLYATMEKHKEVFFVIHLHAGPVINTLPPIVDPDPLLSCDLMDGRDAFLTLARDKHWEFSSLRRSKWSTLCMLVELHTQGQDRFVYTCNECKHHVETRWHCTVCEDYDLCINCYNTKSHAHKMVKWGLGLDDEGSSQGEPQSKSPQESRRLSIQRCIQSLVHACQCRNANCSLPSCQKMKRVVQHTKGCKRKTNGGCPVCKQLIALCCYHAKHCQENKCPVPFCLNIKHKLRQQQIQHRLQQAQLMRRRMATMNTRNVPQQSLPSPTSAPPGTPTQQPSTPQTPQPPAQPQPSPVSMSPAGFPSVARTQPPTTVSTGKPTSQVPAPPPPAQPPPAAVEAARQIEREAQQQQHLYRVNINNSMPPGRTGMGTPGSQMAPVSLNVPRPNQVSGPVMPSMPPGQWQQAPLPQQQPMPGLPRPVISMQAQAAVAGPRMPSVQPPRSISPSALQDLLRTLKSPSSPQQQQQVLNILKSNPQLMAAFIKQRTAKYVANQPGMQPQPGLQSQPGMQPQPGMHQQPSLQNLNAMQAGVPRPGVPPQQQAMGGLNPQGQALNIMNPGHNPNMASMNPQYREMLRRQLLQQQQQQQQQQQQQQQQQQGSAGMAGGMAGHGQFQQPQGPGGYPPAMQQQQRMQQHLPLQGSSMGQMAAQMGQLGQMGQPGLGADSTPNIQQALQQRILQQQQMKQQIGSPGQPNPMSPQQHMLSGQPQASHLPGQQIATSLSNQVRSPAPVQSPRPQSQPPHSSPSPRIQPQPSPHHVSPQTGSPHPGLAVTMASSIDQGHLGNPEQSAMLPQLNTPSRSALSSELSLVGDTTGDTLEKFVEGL

For the compound `CC(=O)N1CCc2c(c(N3CCCc4cc(-c5cnn(C)c5)c(C(F)F)cc43)nn2C2CCN(C3CCC(C#Cc4ccc(C(=O)N[C@H]5CC[C@H](Oc6ccc(C#N)c(Cl)c6)CC5)nn4)CC3)CC2)C1` (some centres unmarked) [Compound 194, 6-[2-[4-[4-[5-acetyl-3-[7-(difluoromethyl)-6-(1-methylpyrazol-4-yl)-3,4-dihydro-2H-quinolin-1-yl]-6,7-dihydro-4H-pyrazolo[4,3-c]pyridin-1-yl]-1-piperidyl]cyclohexyl]ethynyl]-N-[4-(3-chloro-4-cyano-phenoxy)cyclohexyl]pyridazine-3-carboxamide], the IC50 (as a rule, the concentration that inhibits the measured activity by half) with VCaP cells was no more than 0.1 nM. Moreover, at AR / CBP ternary complex, the EC50 is less than 1 nM.

`CC(=O)N1CCc2c(c(-c3cccc4cc(-c5ccc(CC6CCN(c7ccc(C(=O)N[C@H]8CC[C@H](Oc9ccc(C#N)c(Cl)c9)CC8)nn7)CC6)nc5)ncc34)nn2C2CCOCC2)C1` [Compound 23, 6-[4-[[5-[8-(5-acetyl-1-tetrahydropyran-4-yl-6,7-dihydro-4H-pyrazolo[4,3-c]pyridin-3-yl)-3-isoquinolyl]-2-pyridyl]methyl]-1-piperidyl]-N-[4-(3-chloro-4-cyano-phenoxy)cyclohexyl]pyridazine-3-carboxamide] yielded an IC50 in the assay with VCaP cells of 0.1 to 1 nM. At AR / CBP ternary complex, the EC50 is less than 1 nM.

On to `CC(=O)N1CCc2c(c(-c3cccc4cc(-c5cnn(CC6CCN(c7ccc(C(=O)N[C@H]8CC[C@H](Oc9ccc(C#N)c(Cl)c9)CC8)nn7)CC6)c5)ncc34)nn2C2CCOCC2)C1` [Compound 22, 6-[4-[[4-[8-(5-acetyl-1-tetrahydropyran-4-yl-6,7-dihydro-4H-pyrazolo[4,3-c]pyridin-3-yl)-3-isoquinolyl]pyrazol-1-yl]methyl]-1-piperidyl]-N-[4-(3-chloro-4-cyano-phenoxy)cyclohexyl]pyridazine-3-carboxamide], for which, in the assay with VCaP cells, the IC50 was no more than 0.1 nM. The EC50 at AR / CBP ternary complex was less than 1 nM.

Turning to `CC(=O)N1CCc2c(c(N3CCCc4cc(-c5cnn(C)c5)c(C(F)F)cc43)nn2C2CCN([C@@H]3CCN(c4ccc(C(=O)N[C@H]5CC[C@H](Oc6ccc(C#N)c(Cl)c6)CC5)nn4)C[C@@H]3C)CC2)C1` [Compound 200], the IC50 in the assay on VCaP cells is no more than 0.1 nM. The EC50 on AR / CBP ternary complex is less than 1 nM.

Take `CC(=O)N1CCc2c(c(N3CCCc4cc(-c5cnn(C)c5)c(C(F)F)cc43)nn2C2CCN(C[C@H]3CCN(c4ccc(C(=O)N[C@H]5CC[C@H](Oc6ccc(C#N)c(Cl)c6)CC5)nn4)C[C@H]3C)CC2)C1` [Compound 234]: in the assay with VCaP cells, the IC50 is no more than 0.1 nM. Also, the EC50 at AR / CBP ternary complex was less than 1 nM.

With `CC(=O)N1CCc2c(c(-c3cccc4cc(-c5ccc(CCN6CCN(c7ccc(C(=O)N[C@H]8CC[C@H](Oc9ccc(C#N)c(Cl)c9)CC8)nn7)CC6)nc5)ncc34)nn2C)C1` [Compound 30, 6-[4-[2-[5-[8-(5-acetyl-1-methyl-6,7-dihydro-4H-pyrazolo[4,3-c]pyridin-3-yl)-3-isoquinolyl]-2-pyridyl]ethyl]piperazin-1-yl]-N-[4-(3-chloro-4-cyano-phenoxy)cyclohexyl]pyridazine-3-carboxamide], the IC50 with VCaP cells was no more than 0.1 nM. For the same compound, the EC50 on AR / CBP ternary complex is less than 1 nM.

In turn, `CC(=O)N1CCc2c(c(N3CCCc4cc(-c5cnn(C)c5)c(C(F)F)cc43)nn2[C@H]2CC[C@@]3(CCN(C4CN(c5ccc(C(=O)N[C@H]6CC[C@H](Oc7ccc(C#N)c(Cl)c7)CC6)nn5)C4)C3)CC2)C1` [Compound 263, 6-[3-[8-[5-acetyl-3-[7-(difluoromethyl)-6-(1-methylpyrazol-4-yl)-3,4-dihydro-2H-quinolin-1-yl]-6,7-dihydro-4H-pyrazolo[4,3-c]pyridin-1-yl]-2-azaspiro[4.5]decan-2-yl]azetidin-1-yl]-N-[4-(3-chloro-4-cyano-phenoxy)cyclohexyl]pyridazine-3-carboxamide] gave an IC50 in the assay with VCaP cells of no more than 0.1 nM. Moreover, the EC50 at AR / CBP ternary complex is less than 1 nM.
